Values quoted from earlier work in patent US20230346789A1, “METHODS OF TREATING ENHANCING BRAIN TUMORS USING COMBINATION THERAPY” (MSD International GmbH, priority 2022, published 2023).
Where two headings read alike, the source gives them in different places.

Experiments:
[1] = system: Recurrent or Progressive Glioma; conditions: monotherapy

| Molecule | clinical efficacy ([1]; patients with non-enhancing gliomas) | clinical efficacy ([1]; patients with recurrent enhancing gliomas) | preclinical safety profile |
| --- | --- | --- | --- |
| C[C@@H](Nc1nc(N[C@H](C)C(F)(F)F)nc(-c2cccc(Cl)n2)n1)C(F)(F)F [vorasidenib, 6-(6-chloropyridin-2-yl)-N^2,N^4-bis((R)-1,1,1-trifluoropropan-2-yl)-1,3,5-triazine-2,4-diamine] | clinical activity and prolonged disease control | only limited efficacy |  |
| pembrolizumab: humanized immunoglobulin G4 (IgG4) monoclonal antibody blocking the programmed death receptor-1 (PD1) |  |  | acceptable |
